The values that follow are results of earlier work, collected in US20070196517A1, “Modified Saponin Molluscicide” (priority 2005, published 2007).

The subject of one data set is golden apple snails. Conditions: rice fields (Bayer, 2005).
For a further data set, the system named is tropical fish (carp). As to conditions: carp (WHO 2002).

Where a name gives a salt, the structure may show the parent alone.

`O=C(Nc1ccc([N+](=O)[O-])cc1Cl)c1cc(Cl)ccc1O` [Niclosamide, 2-aminoethanol salt of 2′,5-dichloro-4′,nitro-salicylanilide]: in the data set on golden apple snails, the “effective doses for control of golden apple snail” value is 0.5 to 1.0 mg/L. For the same compound, the “LC50 (kills 50% of tropical fish)” value in the data set with tropical fish (carp) is 0.14 µg/mL.
